In patent US20260116920A1, “HUMAN TRANSFERRIN RECEPTOR BINDING PEPTIDE” (PEPTIDREAM INC., priority 2021, published 2026):
pKd: −log10 of the molar value. Positions of bridges follow the written chain, without caps; N, C: chain ends. Non-standard residues stand in square brackets, D forms with d. Residues, ends and D or L forms follow the SMILES beside them. *: point of attachment. Trp(1-CH2COOH) = N[C@@H](Cc1cn(CC(=O)O)c2ccccc12)C(=O)O; Nle(6-morpholino) = N[C@@H](CCCCN1CCOCC1)C(=O)O; NMePhe(3-Cl) = CN[C@@H](Cc1cccc(Cl)c1)C(=O)O; NMeY = CN[C@@H](Cc1ccc(O)cc1)C(=O)O; PEG4 = NCCOCCOCCOCCOCCC(=O)O; Carboxymethyl = O=C(O)C*

biological target: T1, human transferrin receptor (hTfR) (Homo sapiens, UniProt P02786); test: Evaluation of molecular interaction between transferrin receptor (hTfR) and peptide using surface plasmon resonance (SPR); type: binding; details: KD class for binding to hTfR by SPR; peptide with the linker shown in the same line; 'low signal indicates no activity'; read-out: SPR
T1 construct: made in house
Summary of the method: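 SPR, single-cycle kinetics; hTfR dimer on NTA chip via Ni capture plus EDC/NHS coupling. Analyte peptide 100, 50, 25, 10, 5 nM. Running buffer: 10 mM HEPES pH 8.0, 150 mM NaCl, 0.05% Tween 20, 0.1% BSA, 1.0% DMSO. KD by least-squares fit.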

T1 sequence (P02786 89-760 limits assumed): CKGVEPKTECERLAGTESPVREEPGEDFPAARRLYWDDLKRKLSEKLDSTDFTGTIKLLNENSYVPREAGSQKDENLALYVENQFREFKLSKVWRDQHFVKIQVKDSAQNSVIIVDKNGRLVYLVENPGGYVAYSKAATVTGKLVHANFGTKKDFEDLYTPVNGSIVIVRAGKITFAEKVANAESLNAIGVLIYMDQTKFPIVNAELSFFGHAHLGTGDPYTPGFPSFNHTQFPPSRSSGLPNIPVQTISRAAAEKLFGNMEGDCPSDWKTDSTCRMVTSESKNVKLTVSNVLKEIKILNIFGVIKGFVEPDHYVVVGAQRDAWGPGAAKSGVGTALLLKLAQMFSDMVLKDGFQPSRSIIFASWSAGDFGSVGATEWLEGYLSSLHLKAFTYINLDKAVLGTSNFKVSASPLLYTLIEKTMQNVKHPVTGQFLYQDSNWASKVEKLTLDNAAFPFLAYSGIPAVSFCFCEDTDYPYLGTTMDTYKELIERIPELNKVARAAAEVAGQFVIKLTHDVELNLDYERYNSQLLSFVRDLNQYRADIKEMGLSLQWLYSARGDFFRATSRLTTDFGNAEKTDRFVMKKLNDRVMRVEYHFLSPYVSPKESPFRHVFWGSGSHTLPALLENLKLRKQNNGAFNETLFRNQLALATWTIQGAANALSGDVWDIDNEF

| Compound | pKd |
| --- | --- |
| CC[C@H](C)[C@@H]1NC(=O)[C@H](Cc2ccc(OCC(=O)O)cc2)NC(=O)[C@H](Cc2ccc(O)cc2)NC(=O)[C@H](CC(N)=O)NC(=O)[C@H](Cc2cn(CC(=O)O)c3ccccc23)NC(=O)[C@H](C(C)C)NC(=O)[C@H](Cc2cccc(Cl)c2)N(C)C(=O)[C@H](C(C)C)NC(=O)[C@H](C)NC(=O)CSC[C@@H](C(=O)NCCOCCOCCOCCOCCC(N)=O)NC(=O)[C@H](Cc2ccc(O)cc2)N(C)C(=O)[C@H](Cc2ccccc2)NC(=O)[C@H](CCCNC(=N)N)NC(=O)[C@H](CCCCN2CCOCC2)NC(=O)[C@H]([C@@H](C)CC)NC1=O [894_0388] | > 9.00 |
| CC[C@H](C)[C@@H]1NC(=O)[C@H](Cc2ccc(OCC(=O)O)cc2)NC(=O)[C@H](Cc2ccc(O)cc2)NC(=O)[C@H](CC(N)=O)NC(=O)[C@H](Cc2cn(CC(=O)O)c3ccccc23)NC(=O)[C@H](C(C)C)NC(=O)[C@H](Cc2cccc(Cl)c2)N(C)C(=O)[C@H](C(C)C)NC(=O)[C@H](C)NC(=O)CSC[C@@H](C(=O)NCCOCCOCCOCCOCCC(N)=O)NC(=O)[C@H](Cc2ccc(O)cc2)N(C)C(=O)[C@H](Cc2ccccc2)NC(=O)[C@H](CCCCN2CCOCC2)NC(=O)[C@H](CCCNC(=N)N)NC(=O)[C@H]([C@@H](C)CC)NC1=O [894_0389] ({CH2CO}-AV[NMePhe(3-Cl)]V[Trp(1-CH2COOH)]NYY(Carboxymethyl)IIR[Nle(6-morpholino)]F[NMeY]C[PEG4]-NH2; thioether N-15) | > 9.00 |
| CC[C@H](C)[C@@H]1NC(=O)[C@H](Cc2ccc(OCC(=O)O)cc2)NC(=O)[C@H](Cc2ccc(O)cc2)NC(=O)[C@H](CC(N)=O)NC(=O)[C@H](Cc2cn(CC(=O)O)c3ccccc23)NC(=O)[C@H](C(C)C)NC(=O)[C@H](Cc2cccc(Cl)c2)N(C)C(=O)[C@H](C(C)C)NC(=O)[C@H](C)NC(=O)CSC[C@@H](C(=O)NCCOCCOCCOCCOCCC(N)=O)NC(=O)[C@H](Cc2ccc(O)cc2)N(C)C(=O)[C@H](Cc2ccccc2)NC(=O)[C@H](CCCCN2CCOCC2)NC(=O)[C@H](CCCCN2CCOCC2)NC(=O)[C@H]([C@@H](C)CC)NC1=O [894_0390] ({CH2CO}-AV[NMePhe(3-Cl)]V[Trp(1-CH2COOH)]NYY(Carboxymethyl)II[Nle(6-morpholino)][Nle(6-morpholino)]F[NMeY]C[PEG4]-NH2; thioether N-15) | > 9.00 |
| CC[C@H](C)[C@@H]1NC(=O)[C@H](Cc2ccc(O)cc2)NC(=O)[C@H](Cc2ccc(O)cc2)NC(=O)[C@H](CC(N)=O)NC(=O)[C@H](Cc2c[nH]c3ccc(Cl)cc23)NC(=O)[C@H](C(C)C)NC(=O)[C@H](Cc2ccccc2)N(C)C(=O)[C@H](C(C)C)NC(=O)[C@H](C)NC(=O)CSC[C@@H](C(=O)NCC(=O)N[C@@H](CCCCN=[N+]=[N-])C(N)=O)NC(=O)[C@H](Cc2ccc(O)cc2)N(C)C(=O)[C@H](Cc2ccccc2)NC(=O)[C@H](CCCNC(=N)N)NC(=O)[C@H](CCCNC(=N)N)NC(=O)[C@H]([C@@H](C)CC)NC1=O [894_3153] | 7.00 to 9.00 |
| CC[C@H](C)[C@@H]1NC(=O)[C@H](Cc2ccc(OC)cc2)NC(=O)[C@H](Cc2ccc(O)cc2)NC(=O)[C@H](CC(N)=O)NC(=O)[C@H](Cc2c[nH]c3ccc(Cl)cc23)NC(=O)[C@H](C(C)C)NC(=O)[C@H](Cc2ccccc2)N(C)C(=O)[C@H](C(C)C)NC(=O)[C@H](C)NC(=O)CSC[C@@H](C(=O)NCC(=O)N[C@@H](CCCCN=[N+]=[N-])C(N)=O)NC(=O)[C@H](Cc2ccc(O)cc2)N(C)C(=O)[C@H](Cc2ccccc2)NC(=O)[C@H](CCCNC(=N)N)NC(=O)[C@H](CCCNC(=N)N)NC(=O)[C@H]([C@@H](C)CC)NC1=O [894_3154] | 7.00 to 9.00 |
| CC[C@H](C)[C@@H]1NC(=O)[C@H](Cc2ccc(OC)cc2)NC(=O)[C@H](Cc2ccc(O)cc2)NC(=O)[C@H](CC(N)=O)NC(=O)[C@H](Cc2c[nH]c3ccc(Cl)cc23)NC(=O)[C@H](C(C)C)NC(=O)[C@H](Cc2ccccc2)N(C)C(=O)[C@H](C(C)C)NC(=O)[C@H](C)NC(=O)CSC[C@@H](C(=O)NCC(=O)N[C@@H](CCCCN=[N+]=[N-])C(N)=O)NC(=O)[C@H](Cc2ccc(O)cc2)N(C)C(=O)[C@H](Cc2ccccc2)NC(=O)[C@@H](CCCNC(=N)N)NC(=O)[C@H](CCCNC(=N)N)NC(=O)[C@H]([C@@H](C)CC)NC1=O [894_3155] | 7.00 to 9.00 |
| CC[C@H](C)[C@@H]1NC(=O)[C@H](Cc2ccc(OC)cc2)NC(=O)[C@H](Cc2ccc(O)cc2)NC(=O)[C@H](CC(N)=O)NC(=O)[C@H](Cc2c[nH]c3ccc(Cl)cc23)NC(=O)[C@H](C(C)C)NC(=O)[C@H](Cc2ccc(F)cc2)N(C)C(=O)[C@H](C(C)C)NC(=O)[C@H](C)NC(=O)CSC[C@@H](C(=O)NCC(=O)N[C@@H](CCCCN=[N+]=[N-])C(N)=O)NC(=O)[C@H](Cc2ccc(O)cc2)N(C)C(=O)[C@H](Cc2ccccc2)NC(=O)[C@H](CCCNC(=N)N)NC(=O)[C@H](CCCNC(=N)N)NC(=O)[C@H]([C@@H](C)CC)NC1=O [894_3156] | 7.00 to 9.00 |
| CC[C@H](C)[C@@H]1NC(=O)[C@H](Cc2ccc(OC)cc2)NC(=O)[C@H](Cc2ccc(O)cc2)NC(=O)[C@H](CC(N)=O)NC(=O)[C@H](Cc2c[nH]c3ccc(Cl)cc23)NC(=O)[C@H](C(C)C)NC(=O)[C@H](Cc2ccc(F)cc2)N(C)C(=O)[C@H](C(C)C)NC(=O)[C@H](C)NC(=O)CSC[C@@H](C(=O)NCC(=O)N[C@@H](CCCCN=[N+]=[N-])C(N)=O)NC(=O)[C@H](Cc2ccc(O)cc2)N(C)C(=O)[C@H](Cc2ccccc2)NC(=O)[C@@H](CCCNC(=N)N)NC(=O)[C@H](CCCNC(=N)N)NC(=O)[C@H]([C@@H](C)CC)NC1=O [894_3157] | 6.00 to 7.00 |
| CC[C@H](C)[C@@H]1NC(=O)[C@H](Cc2ccc(OC)cc2)NC(=O)[C@H](Cc2ccc(O)cc2)NC(=O)[C@H](CC(N)=O)NC(=O)[C@H](Cc2c[nH]c3ccccc23)N(C)C(=O)[C@H](C(C)C)NC(=O)[C@H](Cc2ccncc2)N(C)C(=O)[C@H](C(C)C)NC(=O)[C@H](C)NC(=O)CSC[C@@H](C(=O)NCC(=O)N[C@@H](CCCCN=[N+]=[N-])C(N)=O)NC(=O)[C@H](Cc2ccc(O)cc2)N(C)C(=O)[C@H](Cc2ccccc2)NC(=O)[C@@H](CCCNC(=N)N)NC(=O)[C@H](CCCNC(=N)N)NC(=O)[C@H]([C@@H](C)CC)NC1=O [894_3158] | 7.00 to 9.00 |
| CC[C@H](C)[C@@H]1NC(=O)[C@H](Cc2ccc(OC)cc2)NC(=O)[C@H](Cc2ccc(O)cc2)NC(=O)[C@H](CC(N)=O)NC(=O)[C@H](Cc2c[nH]c3ccccc23)N(C)C(=O)[C@H](C(C)C)NC(=O)[C@H](Cc2cccc(C(=O)O)c2)N(C)C(=O)[C@H](C(C)C)NC(=O)[C@H](C)NC(=O)CSC[C@@H](C(=O)NCC(=O)N[C@@H](CCCCN=[N+]=[N-])C(N)=O)NC(=O)[C@H](Cc2ccc(O)cc2)N(C)C(=O)[C@H](Cc2ccccc2)NC(=O)[C@@H](CCCNC(=N)N)NC(=O)[C@H](CCCNC(=N)N)NC(=O)[C@H]([C@@H](C)CC)NC1=O [894_3159] | 6.00 to 7.00 |
| CC[C@H](C)[C@@H]1NC(=O)[C@H](Cc2ccc(O)cc2)NC(=O)[C@H](Cc2ccc(O)cc2)NC(=O)[C@H](C)NC(=O)[C@H](Cc2c[nH]c3ccccc23)NC(=O)[C@H](C(C)C)NC(=O)[C@H](Cc2ccccc2)N(C)C(=O)[C@H](C(C)C)NC(=O)[C@H](C)NC(=O)CSC[C@@H](C(=O)NCC(=O)N[C@@H](CCCCN=[N+]=[N-])C(N)=O)NC(=O)[C@H](Cc2ccc(O)cc2)N(C)C(=O)[C@H](Cc2ccc(O)cc2)NC(=O)[C@H](CCCNC(=N)N)NC(=O)[C@H](CCCNC(=N)N)NC(=O)[C@H]([C@@H](C)CC)NC1=O [894_3160] | 6.00 to 7.00 |
| CC[C@H](C)[C@@H]1NC(=O)[C@H](Cc2ccc(O)cc2)NC(=O)[C@H](Cc2ccc(O)cc2)NC(=O)[C@H](CC(N)=O)NC(=O)[C@H](Cc2c[nH]c3ccc(Cl)cc23)NC(=O)[C@H](C(C)C)NC(=O)[C@H](Cc2ccccc2)N(C)C(=O)[C@H](C(C)C)NC(=O)[C@H](C)NC(=O)CSC[C@@H](C(=O)NCC(=O)N[C@@H](CCCCN=[N+]=[N-])C(N)=O)NC(=O)[C@H](Cc2ccc(O)cc2)N(C)C(=O)[C@H](Cc2ccc(O)cc2)NC(=O)[C@H](CCCNC(=N)N)NC(=O)[C@H](CCCNC(=N)N)NC(=O)[C@H]([C@@H](C)CC)NC1=O [894_3161] | 7.00 to 9.00 |
| CC[C@H](C)[C@@H]1NC(=O)[C@H](Cc2ccc(OC)cc2)NC(=O)[C@H](Cc2ccc(O)cc2)NC(=O)[C@H](CC(N)=O)NC(=O)[C@H](Cc2c[nH]c3ccc(Cl)cc23)NC(=O)[C@H](C(C)C)NC(=O)[C@H](Cc2ccccc2)N(C)C(=O)[C@H](C(C)C)NC(=O)[C@H](C)NC(=O)CSC[C@@H](C(=O)NCC(=O)N[C@@H](CCCCN=[N+]=[N-])C(N)=O)NC(=O)[C@H](Cc2ccc(O)cc2)N(C)C(=O)[C@H](Cc2ccc(O)cc2)NC(=O)[C@H](CCCNC(=N)N)NC(=O)[C@H](CCCNC(=N)N)NC(=O)[C@H]([C@@H](C)CC)NC1=O [894_3162] | 7.00 to 9.00 |
| CC[C@H](C)[C@@H]1NC(=O)[C@H](Cc2ccc(OC)cc2)NC(=O)[C@H](Cc2ccc(O)cc2)NC(=O)[C@H](CC(N)=O)NC(=O)[C@H](Cc2c[nH]c3ccc(Cl)cc23)NC(=O)[C@H](C(C)C)NC(=O)[C@H](Cc2ccc(F)cc2)N(C)C(=O)[C@H](C(C)C)NC(=O)[C@H](C)NC(=O)CSC[C@@H](C(=O)NCC(=O)N[C@@H](CCCCN=[N+]=[N-])C(N)=O)NC(=O)[C@H](Cc2ccc(O)cc2)N(C)C(=O)[C@H](Cc2ccc(O)cc2)NC(=O)[C@H](CCCNC(=N)N)NC(=O)[C@H](CCCNC(=N)N)NC(=O)[C@H]([C@@H](C)CC)NC1=O [894_3163] | 7.00 to 9.00 |
| CC[C@H](C)[C@@H]1NC(=O)[C@H](Cc2ccc(OC)cc2)NC(=O)[C@H](Cc2ccc(O)cc2)NC(=O)[C@H](CC(N)=O)NC(=O)[C@H](Cc2c[nH]c3ccccc23)NC(=O)[C@H](C(C)C)NC(=O)[C@H](Cc2cccc(Cl)c2)N(C)C(=O)[C@H](C(C)C)NC(=O)[C@H](C)NC(=O)CSC[C@@H](C(=O)NCC(=O)N[C@@H](CCCCN=[N+]=[N-])C(N)=O)NC(=O)[C@H](Cc2ccc(O)cc2)N(C)C(=O)[C@H](Cc2ccc(O)cc2)NC(=O)[C@H](CCCNC(=N)N)NC(=O)[C@H](CCCNC(=N)N)NC(=O)[C@H]([C@@H](C)CC)NC1=O [894_3164] | 7.00 to 9.00 |
